Reference: ChEMBL document CHEMBL5357080, “Redefining Neurodegenerative Treatment: Synergy of KEAP1, PROTACs, and Inflammatory Modulators” (ACS Med Chem Lett, 2024)

Molecular target: Bromodomain-containing protein 4 (Homo sapiens) (UniProt O60885)
Experiment: Induction of degradation of BRD4 in human MDA-MB-468 cells at 0.01 uM measured after 24 to 48 hrs by densitometry analysis relative to control
Format: cell-based
Settings: time lower […], time upper […]

Activity: 75%
SMILES: Cc1sc2c(c1C)C(c1ccc(Cl)cc1)=N[C@@H](CC(=O)NCC(=O)NCCn1nnc(COc3ccc(Cl)c4c3[C@@H](CN3CC5(CC5)CC3=O)N(C(=O)[C@@H]3CCCC[C@]3(C)C(=O)O)CC4)c1C)c1nnc(C)n1-2
